The text below walks through data of patent US20240325319A1, “INHIBITORS OF AMYLOID BETA OLIGOMERIZATION AND THERAPEUTIC USES THEREOF” (Northwestern University, priority 2021, published 2024).

“Also recorded” adds a separate entry of the source.

One assay addresses T1, Aβ42 (Homo sapiens, UniProt P05067).
T1 construct: then treated with amyloid beta 1-42 (Aβ) monomer
Description: AβO formation from Aβ monomer in the absence of cells (dot blot, coverslips, fresh or conditioned media). Format: biochemical. The procedure:
FIG. 5. A) NU-9 and Aβ were combined in F12 media, in the absence of cells, and incubated at 37° C. B) The concentration of AβOs was probed with NU2 antibody via dot blot after 24 hours in the conditions containing 3 μM NU-9 with or without Aβ.
FIG. 6. In dishes without cells, but in conditions that mimicked cell culture, 3 μM NU-9 and 500 nM Aβ42 for 30 minutes fixed with 3.7% formaldehyde and stained for AβOs (NU2, green) and mounted on slides before imaging at 63×.
FIG. 9. The effect of NU-9 requires the presence of cells. Conditioned media was collected from mature hippocampal neuron. DMSO control (Control), Aβ monomer (Aβ), or NU-9 and then Aβ (NU-9+Aβ in cond. media) were added, then concentration of AβOs were analyzed by dot blot. Conditioned media was also collected from neurons treated with NU-9, then Aβ was added to this (Media from NU-9 in cells+Aβ). […] Standard curve was created in media using 0-1000 fmol AβOs. The dot blot was labelled with NU2 (anti-AβO).
FIG. 10. […] (Conditioned Media) A dot blot probed with NU2 was used to measure AβO abundance in solutions of conditioned media to which DMSO vehicle (control), Aβ, and NU-9 followed by Aβ were added for 30 min each. The bottom row corresponds to samples in which cells were treated with NU-9 for 30 min, then extracellular media was removed, and Aβ was added to the media for 30 min. The standard curve at the top was made from 0-1000 fmol preformed AβOs. (Fresh Media) A dot blot probed with NU2 was used to measure AβO abundance in solutions of culture media to which DMSO vehicle (control), Aβ, and NU-9 (3-300 μM) followed by Aβ were added for 30 min each. Each of these solutions was prepared in triplicate. The standard curve at the top was made from 0-1000 fmol preformed AβOs.
In the absence of cells, NU-9 has no effect on AβO formation. […] Next, a follow-up experiment was conducted using conditions that more closely mimicked those of cell culture. Coverslips were coated, as usual for cell culture, with poly-D-lysine, and then placed into culture dishes with media. No cells were added. Then 3 μM NU-9 and 500 nM AβOs were added for 30 min. In this assay, the previous result was replicated.
Instead, NU-9 exerts an effect at the cell membrane or intracellularly.

The next assay has as its system preformed AβOs. Description: Binding of preformed AβOs to hippocampal neurons. Format: cell-based, rat. The procedure:
FIG. 11. […] Hippocampal neurons were treated with 3 μM NU-9 or vehicle for 30 min, then with Aβ monomer or preformed AβOs for 24 h. […] Neurons were stained with NU4 (anti-AβO antibody) and puncta per process were quantified.
FIG. 15. Mature hippocampal neurons were pre-treated with vehicle or 3 μM NU-9 for 30 min, then vehicle, 200 nM, or 500 nM AβO for 30 min. Then cells were fixed and labelled using anti-MAP2 (green, dendrites), DAPI (blue, nucleus), and NU2 (red, AβOs).
FIG. 19. Mature hippocampal neurons were treated first with 3 μM 9 for 30 min, and then with A) 30 or B) 200 nM LC AβOs for 30 min. Then, cells were fixed and labelled with anti-MAP2, DAPI, and NU2 (AβOs). The graphs show quantification of puncta/μm dendrite (30 images analyzed/condition, *** indicates p<0.001, ** p<0.01, * p<0.05).
If NU-9 did have some effect on preformed AβOs, this would support the alternate hypothesis that NU-9 removes AβO binding targets such as NKAα3 or PRP^c from the neuronal membrane^8-10.

Another assay deals with total Aβ species. Kind of assay: Total Aβ species in neuronal cultures (6E10 immunofluorescence). Format: cell-based, rat. The following applies: NU-9 3 μM, 30 min, then Aβ monomer 500 nM. The procedure:
FIG. 12. […] Mature hippocampal neurons were treated with NU-9 (3 μM, 30 min), then with Aβ monomer (500 nM, 30 min). These were labelled with 6E10 (anti-total Aβ, green) and MAP2 (anti-dendrite). Total number of Aβ particles per images as well as fluorescence intensity of Aβ signal (IntDen) was quantified).
To follow up on this, we treated neurons with NU-9 (3 μM, 30 min) followed by Aβ monomer (500 nM, 30 min) and attempted to observe total Aβ species by dot blot. […] So, instead of using dot blot, we used immunofluorescence, labelling treated neurons for total Aβ species. Using this protocol, we were able to avoid interaction of the antibody with cell culture media, allowing for specific labelling.

The target of another assay is cathepsin L (Homo sapiens, UniProt P07711). Kind of assay: Purified cathepsin L enzyme activity (Z-FR-AMC to 7-AMC). Particulars: 0.0003-150 μM NU-9. The class given is biochemical. On the procedure: FIG. 26. A) 0.0003-150 μM NU-9 was combined with purified cathepsin L enzyme in the presence of the cathepsin L substrate Z-FR-AMC. Cathepsin L enzyme activity was measured by the rate of 7-AMC production by fluorescence. Percent change in rate was quantified in the graph. […] B) Mature hippocampal neurons were treated with NU-9 for 30 minutes, then Magic Red was used to monitor intracellular cathepsin L activity. Cells were treated in 3 wells, and 9-22 images were analyzed per condition.
cathepsin L, sequence (P07711 114-333, species assumed): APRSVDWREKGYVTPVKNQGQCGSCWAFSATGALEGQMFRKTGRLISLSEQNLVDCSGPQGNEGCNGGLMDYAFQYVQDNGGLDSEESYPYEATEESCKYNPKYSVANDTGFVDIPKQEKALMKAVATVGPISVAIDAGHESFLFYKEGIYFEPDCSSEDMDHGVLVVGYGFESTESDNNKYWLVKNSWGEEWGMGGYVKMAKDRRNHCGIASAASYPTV
No effect of 0.0003-150 μM NU-9 was observed on the cathepsin L activity as measured by the production rate of 7-AMC from Z-FR-AMC by purified cathepsin L enzyme.

The next assay concerns AβOs bound to neurons. Kind of assay: AβOs bound to dendrites of hippocampal neurons treated with Aβ42 monomer (immunofluorescence, NU2/NU4). Format: cell-based, rat.
Another assay concerns AβOs. Description: Size of AβOs formed, molecular weight cutoff filters of 50 and 100 kDa. The following applies: 50 and 100 kDa cutoff filters; conflicting results from different blots. The text has this:
Another area of investigation this quarter was the effect of NU-9 on the formation of different sizes of AβOs. Evidence from animal models and human samples indicate that that some species of AβOs are more toxic than others, and specifically that higher molecular weight oligomers (>50 kDa) may include the most Aβ-relevant species^15-16. To investigate whether NU-9 reduced the formation of high-molecular weight AβOs, I carried out several experiments using molecular weight cutoff filters of 50 and 100 kDa. However, conflicting results were obtained from different blots. […] The use of sufficient bioreplicates and thorough mixing is important for these experiments. These experiments may be revisited in the future, or the question of the type of AβOs targeted could be addressed through proteomics.

T1 sequence (P05067 672-713): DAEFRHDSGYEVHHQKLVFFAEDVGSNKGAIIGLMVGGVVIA

Turning to `C[C@H](Oc1cc(C(F)(F)F)cc(C(F)(F)F)c1)C1CC(=O)CC(=O)C1` [NU-9, (S)-5-(1-(3,5-bis(trifluoromethyl)phenoxy)ethyl)cyclohexane-1,3-dione], on Aβ42 (3 μM NU-9 and Aβ in F12 media, 37° C., 24 hours), the “AβO concentration by NU2 dot blot, no cells” value was “no change in AβO formation was observed; also recorded: No significant difference was observed”. Further, at Aβ42 (NU-9 3 μM, 30 min added to media, Aβ monomer 500 nM, 30 min), the “AβOs formed from Aβ monomer in conditioned media of untreated cells” value is on record as “did not reduce the number of AβOs formed from Aβ monomer; also recorded: Aβ was not reduce in any treatment condition”. Moreover, the “AβO formation from Aβ monomer in fresh media (dot blot)” value at Aβ42 (NU-9 3-300 μM followed by Aβ, 30 min each) is “did not reduce ABO formation directly; also recorded: does not reduce AβO formation from Aβ monomer in cell-free solution”. The “AβOs formed from Aβ monomer in conditioned media from cells treated with NU-9” value on Aβ42 (cells treated 3 μM NU-9 30 min, media removed, Aβ added 30 min) was “also did not reduce the number of AβOs formed from Aβ monomer in the absence of cells”. The “number of AβOs bound to coverslips, no cells” value at Aβ42 (poly-D-lysine coverslips in media, 3 μM NU-9 and 500 nM Aβ42, 30 min) is given as “did not affect AβO formation; also recorded: did not significantly affect the number of AβOs bound to coverslips”. Besides, the “binding of AβOs to hippocampal neurons (puncta/μm dendrite)” value in the assay with preformed AβOs (3 μM 30 min, then 30 or 200 nM LC AβOs 30 min) is “no effect on the binding of the AβOs to hippocampal neurons”. Moreover, the “binding of preformed AβOs to dendrites (puncta/μm)” value with preformed AβOs (3 μM NU-9 30 min, then 200 or 500 nM AβO 30 min) is “has no effect on the binding of preformed AβOs; also recorded: no effect on binding to dendrites”. The “binding of preformed AβOs to neurons (NU4 puncta per process)” value in the assay with preformed AβOs (3 μM NU-9 30 min, then preformed AβOs 24 h) is “does not reduce binding in neurons treated with premade AβOs; also recorded: does not reduce binding of preformed AβOs to neurons”. Also, in the assay with total Aβ species, the “total Aβ species (particles, IntDen)” value was “does not reduce total Aβ species observable in neuronal cultures”. At cathepsin L, the “cathepsin L activity (production rate of 7-AMC from Z-FR-AMC)” value is “No effect”. For the same molecule, the “effect of NU-9 on neuron-binding AβOs in the presence of lysosome inhibitor” value in the assay on AβOs bound to neurons (100 nM bafilomycin A 30 min, NU-9 3 μM 30 min, Aβ monomer 500 nM 30 min) was “unable to do so; also recorded: abolished in the presence of a lysosome acidification inhibitor”. Further, the “AβOs bound to dendrites when NU-9 is washed out prior to Aβ monomer” value in the assay on AβOs bound to neurons (NU-9 pre-treatment, washout, then Aβ 500 nM, 30 min) is “leads to a reduction in AβOs bound to dendrites; also recorded: maintained even when NU-9 was washed out; also recorded: reduced the number of AβOs bound to dendrites; also recorded: remains effective even when it is washed out”. The “change in AβO size species” value in the assay on AβOs was “reduction in 50-100 kDa species was observed, alongside an increase in small species (<50 kDa); also recorded: reduction in most species was observed, except in small species (<50 kDa)”.
